Measured values taken from BigSolDB 2.1.

Settings: in acetic acid

CO[C@H]1/C=C/O[C@@]2(C)Oc3c(C)c(O)c4c(O)c(c(/C=N/N5CCN(C6CCCC6)CC5)c(O)c4c3C2=O)NC(=O)/C(C)=C\C=C\[C@H](C)[C@H](O)[C@@H](C)[C@@H](O)[C@@H](C)[C@H](OC(C)=O)[C@@H]1C
Settings	solubility (mole fraction)
278.15 K	0.0523
283.15 K	0.0558
288.15 K	0.0595
293.15 K	0.0632
297.15 K	0.067
303.15 K	0.0707
308.15 K	0.0755
313.15 K	0.0805
318.15 K	0.0858
323.15 K	0.0913
